This note sets out measurements from ChEMBL document CHEMBL4476883, “Hydroxy formamide derivatives and their use” (2017).

Test [1] has as its target T1, Bone morphogenetic protein 1 (Homo sapiens, UniProt P13497).
T1 sequence (P13497 whole entry): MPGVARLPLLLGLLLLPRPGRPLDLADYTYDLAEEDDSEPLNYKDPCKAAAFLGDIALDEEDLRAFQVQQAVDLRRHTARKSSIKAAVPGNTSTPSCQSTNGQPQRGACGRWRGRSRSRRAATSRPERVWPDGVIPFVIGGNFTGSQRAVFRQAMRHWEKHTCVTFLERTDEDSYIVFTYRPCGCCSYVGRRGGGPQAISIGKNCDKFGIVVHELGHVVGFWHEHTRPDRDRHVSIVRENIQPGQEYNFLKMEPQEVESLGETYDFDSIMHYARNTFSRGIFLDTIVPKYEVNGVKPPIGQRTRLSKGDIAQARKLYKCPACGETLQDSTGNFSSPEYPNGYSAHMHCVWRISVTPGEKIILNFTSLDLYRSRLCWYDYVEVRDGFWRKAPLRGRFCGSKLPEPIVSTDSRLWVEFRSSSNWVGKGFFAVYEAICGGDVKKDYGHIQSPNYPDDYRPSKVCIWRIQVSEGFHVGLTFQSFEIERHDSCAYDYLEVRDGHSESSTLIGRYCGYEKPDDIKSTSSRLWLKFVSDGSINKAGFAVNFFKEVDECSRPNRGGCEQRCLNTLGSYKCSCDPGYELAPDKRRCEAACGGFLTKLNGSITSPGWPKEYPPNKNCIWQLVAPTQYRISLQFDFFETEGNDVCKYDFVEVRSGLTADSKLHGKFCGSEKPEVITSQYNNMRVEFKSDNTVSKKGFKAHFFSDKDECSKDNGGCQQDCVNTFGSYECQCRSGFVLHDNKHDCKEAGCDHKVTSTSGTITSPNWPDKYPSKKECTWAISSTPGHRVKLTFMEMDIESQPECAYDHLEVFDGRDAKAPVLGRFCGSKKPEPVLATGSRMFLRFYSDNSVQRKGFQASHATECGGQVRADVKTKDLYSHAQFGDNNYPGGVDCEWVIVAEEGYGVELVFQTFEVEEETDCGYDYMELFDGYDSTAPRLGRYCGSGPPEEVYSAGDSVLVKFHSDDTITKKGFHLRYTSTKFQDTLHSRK
The test is described as follows: Inhibition of C-terminal FLAG-6x-His epitope tagged and N-terminal human RAGE signal sequence tagged human BMP1 (23 to 721 amino acids) expressed in CHO-E1A cells pre-incubated for 10 mins before promyostatin peptide substrate addition and measured after 30 mins using 50 nM BMP1 by FRET based assay. It counts as cell-based.

Test [2] has as its target T1, Bone morphogenetic protein 1. The experiment in a line: Inhibition of C-terminal FLAG-6x-His epitope tagged and N-terminal human RAGE signal sequence tagged human BMP1 (23 to 721 amino acids) expressed in CHO-E1A cells pre-incubated for 10 mins before promyostatin peptide substrate addition and measured after 60 mins using 0.5 nM BMP1 by FRET based assay. It counts as cell-based.

Test [3] in a line: Reduction in PICP levels in human cardiac fibroblasts incubated for 24 to 48 hrs by ELISA. The format is functional.
In a further test the target is Tolloid-like protein 1 (Homo sapiens, UniProt O43897, I156V/N221S/V284A). The experiment in a line: Inhibition of recombinant human TLL1 I156V/N221S/V284A mutant expressed in CHOE1A cells pre-incubated for 10 mins before promyostatin peptide substrate addition and measured after 60 mins by FRET based assay. The format is cell-based.
Sequence of Tolloid-like protein 1 (O43897 148-1013 I156V/N221S/V284A limits assumed): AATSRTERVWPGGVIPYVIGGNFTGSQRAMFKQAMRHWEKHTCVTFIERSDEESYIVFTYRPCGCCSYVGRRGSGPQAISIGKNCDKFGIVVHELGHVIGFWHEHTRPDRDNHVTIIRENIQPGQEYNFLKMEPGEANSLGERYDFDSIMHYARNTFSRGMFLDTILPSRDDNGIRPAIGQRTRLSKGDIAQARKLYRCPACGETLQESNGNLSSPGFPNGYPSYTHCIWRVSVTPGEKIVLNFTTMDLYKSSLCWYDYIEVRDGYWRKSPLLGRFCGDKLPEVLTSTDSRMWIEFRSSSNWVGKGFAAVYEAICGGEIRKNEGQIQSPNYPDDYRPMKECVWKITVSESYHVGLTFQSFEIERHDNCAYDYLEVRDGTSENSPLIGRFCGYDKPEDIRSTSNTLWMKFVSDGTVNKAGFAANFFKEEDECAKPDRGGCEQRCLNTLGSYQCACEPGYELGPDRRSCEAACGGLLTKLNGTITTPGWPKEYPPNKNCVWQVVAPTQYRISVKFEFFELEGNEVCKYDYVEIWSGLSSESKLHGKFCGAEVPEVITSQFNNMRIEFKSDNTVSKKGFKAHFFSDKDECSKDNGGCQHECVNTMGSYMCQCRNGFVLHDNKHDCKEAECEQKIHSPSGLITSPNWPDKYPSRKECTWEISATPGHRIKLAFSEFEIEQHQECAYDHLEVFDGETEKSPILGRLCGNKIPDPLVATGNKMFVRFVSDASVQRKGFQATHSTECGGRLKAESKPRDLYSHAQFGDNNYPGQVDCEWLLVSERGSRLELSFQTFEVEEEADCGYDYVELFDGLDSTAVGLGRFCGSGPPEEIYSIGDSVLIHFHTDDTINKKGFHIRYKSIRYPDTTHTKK
The target in another test is T2, Tolloid-like protein 2 (Homo sapiens, UniProt Q9Y6L7).
T2 sequence (Q9Y6L7 whole entry): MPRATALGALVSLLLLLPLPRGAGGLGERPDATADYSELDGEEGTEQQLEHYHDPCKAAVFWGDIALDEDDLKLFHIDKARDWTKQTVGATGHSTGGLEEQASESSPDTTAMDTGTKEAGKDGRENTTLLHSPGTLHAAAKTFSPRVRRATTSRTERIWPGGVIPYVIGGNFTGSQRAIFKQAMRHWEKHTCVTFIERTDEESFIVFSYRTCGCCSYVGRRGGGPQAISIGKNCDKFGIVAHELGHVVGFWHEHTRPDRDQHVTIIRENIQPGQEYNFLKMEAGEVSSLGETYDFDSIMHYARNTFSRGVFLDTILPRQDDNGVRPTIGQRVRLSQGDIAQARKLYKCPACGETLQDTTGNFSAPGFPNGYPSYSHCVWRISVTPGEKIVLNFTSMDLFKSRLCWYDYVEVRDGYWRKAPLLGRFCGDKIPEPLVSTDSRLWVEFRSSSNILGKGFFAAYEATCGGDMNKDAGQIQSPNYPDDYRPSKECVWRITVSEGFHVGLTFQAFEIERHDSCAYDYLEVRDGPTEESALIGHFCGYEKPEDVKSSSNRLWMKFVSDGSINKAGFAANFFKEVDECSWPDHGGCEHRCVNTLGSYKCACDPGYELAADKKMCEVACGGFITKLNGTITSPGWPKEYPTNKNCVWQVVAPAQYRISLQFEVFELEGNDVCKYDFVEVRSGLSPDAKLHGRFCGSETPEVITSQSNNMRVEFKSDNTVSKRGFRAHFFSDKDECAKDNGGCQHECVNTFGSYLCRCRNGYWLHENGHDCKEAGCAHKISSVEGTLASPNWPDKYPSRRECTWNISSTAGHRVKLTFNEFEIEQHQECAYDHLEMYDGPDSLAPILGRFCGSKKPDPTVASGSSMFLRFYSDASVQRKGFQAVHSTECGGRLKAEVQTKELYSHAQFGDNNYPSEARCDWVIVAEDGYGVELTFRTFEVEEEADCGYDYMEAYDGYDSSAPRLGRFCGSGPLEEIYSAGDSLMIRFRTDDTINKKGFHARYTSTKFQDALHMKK
The test is described as follows: Inhibition of C-terminal Avi-6x-His epitope tagged and N-terminal human RAGE signal sequence tagged recombinant human TLL2 (26 to 1015 amino acids) expressed in CHOE1A cells incubated for 60 mins with promyostatin peptide substrate by FRET based assay. It counts as cell-based.

Regarding `CCCCC[C@H](CN(O)C=O)C(=O)NCNC(=O)c1cccc(-c2cccnc2)n1`, the IC50 (usually the midpoint of a concentration-inhibition curve) in test [1] was under 251 nM; in test [2] it was under 126 nM; in test [3] it was under 20000 nM; at Tolloid-like protein 1, under 398 nM; at Tolloid-like protein 2 it was under 631 nM.

For the molecule `N#Cc1cccc(-c2cccc(C(=O)NCNC(=O)[C@H](CC3CCCC3)CN(O)C=O)c2)c1`, the IC50 was under 251 nM in test [1]; under 126 nM in test [2]; under 20000 nM in test [3]; under 398 nM on Tolloid-like protein 1; under 631 nM at Tolloid-like protein 2.

On to `COc1cc(-c2cccc(C(=O)NCNC(=O)[C@H](CCc3ccccc3)CN(O)C=O)c2)c(OC)nn1`, for which the IC50 is under 251 nM in test [1]; under 126 nM in test [2]; under 20000 nM in test [3]; under 398 nM on Tolloid-like protein 1; under 631 nM at Tolloid-like protein 2.

`CCCCC[C@@H](C(=O)NCNC(=O)c1cccc(-c2ccc(C(=O)NCP(=O)(O)O)cc2)n1)[C@@H](CC)N(O)C=O`: the IC50 in test [1] was under 251 nM; in test [2], under 126 nM; in test [3], under 20000 nM; at Tolloid-like protein 1, under 398 nM; on Tolloid-like protein 2 it was under 631 nM.

As for `CCCCC[C@H](CN(O)C=O)C(=O)NCNC(=O)c1cccc(-c2ccnn2CC)c1`, the half-inhibitory concentration (IC50) in test [1] is under 251 nM; in test [2], under 126 nM; in test [3], under 20000 nM; on Tolloid-like protein 1, under 398 nM; at Tolloid-like protein 2 it was under 631 nM.

Turning to `CCCCC[C@@H](C(=O)NCNC(=O)c1cccc(-c2ccc(C(=O)N[C@@H](CC(=O)O)C(=O)O)c(OCC(=O)O)c2)c1)[C@@H](CC)N(O)C=O`, the IC50 in test [1] is under 251 nM; in test [2], under 126 nM; in test [3], under 20000 nM; at Tolloid-like protein 1, under 398 nM; at Tolloid-like protein 2, under 631 nM.

`CCCCC[C@@H](C(=O)NCNC(=O)c1cccc(-c2ccc(C(=O)O)c(OCC)c2)c1)[C@@H](CC)N(O)C=O`: the IC50 in test [1] was under 251 nM; in test [2], under 126 nM; in test [3], under 20000 nM; at Tolloid-like protein 1, under 398 nM; on Tolloid-like protein 2 it was under 631 nM.

For the molecule `CCCCC[C@H](CN(O)C=O)C(=O)NCNC(=O)c1cccc(-c2cccc(OC)c2F)n1`, the IC50 is under 251 nM in test [1]; under 126 nM in test [2]; under 20000 nM in test [3]; under 398 nM on Tolloid-like protein 1; under 631 nM on Tolloid-like protein 2.

In the case of `CCCCC[C@H](CN(O)C=O)C(=O)NCNC(=O)c1cccc(-c2cc(OC)ccc2OC)c1`, the IC50 in test [1] was under 251 nM; in test [2] it was under 126 nM; in test [3], under 20000 nM; at Tolloid-like protein 1, under 398 nM; on Tolloid-like protein 2 it was under 631 nM.

As to `CCCCC[C@@H](C(=O)NCNC(=O)c1cc(C(=O)O)cc(-c2ccccc2)c1)[C@@H](CC)N(O)C=O`, the IC50 in test [1] was under 251 nM; in test [2], under 126 nM; in test [3], under 20000 nM; at Tolloid-like protein 1, under 398 nM; at Tolloid-like protein 2 it was under 631 nM.

For `CCCCC[C@@H](C(=O)NCNC(=O)c1cccc(-c2ccc(F)c(C(=O)O)c2)n1)[C@@H](CC)N(O)C=O`, the IC50 is under 251 nM in test [1]; under 126 nM in test [2]; under 20000 nM in test [3]; under 398 nM on Tolloid-like protein 1; under 631 nM at Tolloid-like protein 2.

For `CCCCC[C@H](CN(O)C=O)C(=O)NCNC(=O)c1cccc(-c2ccccc2)n1`, the IC50 in test [1] is under 251 nM; in test [2], under 126 nM; in test [3], under 20000 nM; on Tolloid-like protein 1, under 398 nM; on Tolloid-like protein 2, under 631 nM.

Consider `CCCCC[C@@H](C(=O)NCNC(=O)c1cccc(-c2ccc(C(=O)N[C@@H](CCC(=O)O)C(=O)O)cc2)n1)[C@@H](CC)N(O)C=O`, for which the half-inhibitory concentration (IC50) in test [1] is under 251 nM; in test [2], under 126 nM; in test [3], under 20000 nM; on Tolloid-like protein 1, under 398 nM; at Tolloid-like protein 2 it was under 631 nM.

Turning to `CCCCC[C@@H](C(=O)NCNC(=O)c1cccc(-c2ccc(P(=O)(O)O)c(OCC)c2)n1)[C@@H](CC)N(O)C=O`, the IC50 in test [1] was under 251 nM; in test [2], under 126 nM; in test [3], under 20000 nM; at Tolloid-like protein 1, under 398 nM; on Tolloid-like protein 2, under 631 nM.

In the case of `CCCCC[C@H](CN(O)C=O)C(=O)NCNC(=O)c1cccc(-c2cccc(OC)c2)c1`, the IC50 in test [1] was under 251 nM; in test [2] it was under 126 nM; in test [3], under 20000 nM; on Tolloid-like protein 1, under 398 nM; at Tolloid-like protein 2, under 631 nM.

For `O=CN(O)C[C@@H](CCc1ccccc1)C(=O)NCNC(=O)c1cccc(-c2cccc(B(O)O)c2)c1`, the IC50 is under 251 nM in test [1]; under 126 nM in test [2]; under 20000 nM in test [3]; under 398 nM at Tolloid-like protein 1; under 631 nM on Tolloid-like protein 2.

Consider `CCCCC[C@@H](C(=O)NCNC(=O)c1cccc(-c2ccc(C(=O)O)cc2C)n1)[C@@H](CC)N(O)C=O`, for which the IC50 was under 251 nM in test [1]; under 126 nM in test [2]; under 20000 nM in test [3]; under 398 nM on Tolloid-like protein 1; under 631 nM on Tolloid-like protein 2.

`CCCCC[C@@H](C(=O)NCNC(=O)c1cccc(-c2ccc(C(=O)N[C@@H](CCC(=O)O)C(=O)O)c(OCC)c2)n1)[C@@H](CC)N(O)C=O`: the IC50 was under 251 nM in test [1]; under 126 nM in test [2]; under 20000 nM in test [3]; under 398 nM on Tolloid-like protein 1; under 631 nM at Tolloid-like protein 2.

In the case of `CCCCC[C@@H](C(=O)NCNC(=O)c1cccc(-c2ccc(C(=O)NCP(=O)(O)O)c(OCC)c2)n1)[C@@H](CC)N(O)C=O`, the IC50 in test [1] was under 251 nM; in test [2] it was under 126 nM; in test [3], under 20000 nM; at Tolloid-like protein 1, under 398 nM; on Tolloid-like protein 2, under 631 nM.

`CCCCC[C@@H](C(=O)NCNC(=O)c1cccc(-c2ccc(C(=O)N[C@@H](CC(=O)O)C(=O)O)c(F)c2)n1)[C@@H](CC)N(O)C=O`: the IC50 in test [1] is under 251 nM; in test [2], under 126 nM; in test [3], under 20000 nM; on Tolloid-like protein 1 it was under 398 nM; on Tolloid-like protein 2, under 631 nM.

Turning to `O=CN(O)C[C@@H](CC1CCCC1)C(=O)NCNC(=O)c1cccc(Oc2ccccc2)c1`, the IC50 in test [1] was under 251 nM; in test [2], under 126 nM; in test [3] it was under 20000 nM; on Tolloid-like protein 1 it was under 398 nM; on Tolloid-like protein 2 it was under 631 nM.
